Data reported in patent publication US9856279B2 (AGIOS PHARMACEUTICALS, INC, priority 2011, dated 2018).
Read-outs that look alike come from different tables or passages of the source.

Target: IDH1 R132H (Homo sapiens, UniProt O75874, R132H)
Experiment: Assay for IDH1 R132H inhibitors (NADPH/aKG, resazurin detection)
Type: biochemical
Summary of the method: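 Read-out is resorufin fluorescence (Ex544/Em590) 5 min after adding a 30 μM resazurin detection mix. Before that, mutant enzyme (0.2 μg/ml in its mix) ran 50 min at room temperature with compound, 8 uM NADPH and 2 mM aKG (mix levels) in Tris pH 7.5 with NaCl, MgCl2, BSA.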

[1] = enzyme assay of Example 12, read-out: IDH1R132H IC50
[2] = Table 3, enzyme assay, 50 minutes at room temperature, read-out: IC50 (IDH1 R132H Inhibition)

IDH1 R132H, sequence (O75874 whole entry R132H): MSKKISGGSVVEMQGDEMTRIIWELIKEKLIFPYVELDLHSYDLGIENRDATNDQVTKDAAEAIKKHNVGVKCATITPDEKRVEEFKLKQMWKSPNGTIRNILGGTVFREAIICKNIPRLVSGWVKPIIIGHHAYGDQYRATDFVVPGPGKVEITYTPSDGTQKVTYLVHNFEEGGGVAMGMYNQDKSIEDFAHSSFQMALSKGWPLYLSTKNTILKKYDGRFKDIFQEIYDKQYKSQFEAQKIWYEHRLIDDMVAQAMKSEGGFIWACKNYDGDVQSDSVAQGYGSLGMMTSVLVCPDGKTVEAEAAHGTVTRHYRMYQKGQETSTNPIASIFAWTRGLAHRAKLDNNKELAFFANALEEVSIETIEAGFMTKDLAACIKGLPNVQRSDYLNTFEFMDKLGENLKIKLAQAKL

Row | SMILES | IC50 [1] [µM] | IC50 [2] [µM]
1 | CC(C)c1cc(-c2ccccc2)c(C#N)c(N2CCN(C(=O)c3c[nH]c4ccccc34)CC2c2ccccc2)n1 (centres unmarked) [Compound 169, 2-(4-(1H-indole-3-carbonyl)-2-phenylpiperazin-1-yl)-6-isopropyl-4-phenylnicotinonitrile] |  | 1 to 5
2 | N#Cc1cc(-c2cn[nH]c2)c(C2CC2)nc1N1CCN(C(=O)C2CC2)[C@H](C2CC2)C1 [Compound 479, (R)-2-(4-(cyclopropanecarbonyl)-3-cyclopropylpiperazin-1-yl)-6-cyclopropyl-5-(1H-pyrazol-4-yl)nicotinonitrile] | 0.5 to 1 | 
3 | C[C@@H]1CN(c2nc(C3CC3)c(-c3cccc4cnccc34)cc2C#N)CCN1C(=O)C1CC1 [Compound 556, (R)-2-(4-(cyclopropanecarbonyl)-3-methylpiperazin-1-yl)-6-cyclopropyl-5-(isoquinolin-5-yl)nicotinonitrile] | < 0.5 | 
4 | N#Cc1cc(Oc2cc(Cl)ccn2)c(C2CC2)nc1N1CCN(C(=O)CCO)[C@H](C2CC2)C1 [Compound 734, (R)-5-((4-chloropyridin-2-yl)oxy)-6-cyclopropyl-2-(3-cyclopropyl-4-(3-hydroxypropanoyl)piperazin-1-yl)nicotinonitrile] | < 0.5 | 
5 | COCCC(=O)N1CCN(c2nc(C3CC3)c(-c3ccc(F)cc3F)c(C)c2C#N)C[C@H]1C [Compound 256, 6-cyclopropyl-5-(2,4-difluorophenyl)-2-((R)-4-(3-methoxypropanoyl)-3-methylpiperazin-1-yl)-4-methyl-nicotinonitrile] |  | ≤ 1
6 | COCCC(=O)N1CCN(c2nc(C3CC3)c(-c3csc(NC(=O)OC(C)(C)C)n3)cc2C#N)C[C@H]1C [Compound 395, (R)-(4-{5-cyano-2-cyclopropyl-6-[4-(3-methoxy-propionyl)-3-methyl-piperazin-1-yl]-pyridin-3-yl}-thiazol-2-yl)-carbamic acid tert-butyl ester] | 0.5 to 1 | 
7 | COCCC(=O)N1CCN(c2nc(C3CC3)c(-c3c(OC)cccc3OC)cc2C#N)C[C@H]1C [Compound 316, (R)-6-cyclopropyl-5-(2,6-dimethoxyphenyl)-2-(4-(3-methoxypropanoyl)-3-methylpiperazin-1-yl)nicotinonitrile] | 0.5 to 1 | 
8 | Cc1ccc(-c2cc(C#N)c(N3CCN(C(=O)c4ccco4)[C@H](C)C3)nc2C(C)C)cc1 [Compound 180, (R)-2-(4-(furan-2-carbonyl)-3-methylpiperazin-1-yl)-6-isopropyl-5-p-tolylnicotinonitrile] |  | 1 to 5
9 | COCCC(=O)N1CCN(c2nc(C(C)C)c(-c3ccc(F)cc3)cc2C(=O)OC)C[C@H]1C [Compound 244, (R)-methyl 5-(4-fluorophenyl)-6-isopropyl-2-(4-(3-methoxypropanoyl)-3-methylpiperazin-1-yl)nicotinate] |  | 1 to 5
10 | C=Cc1ccnc(Nc2cc(C#N)c(N3CCN(C(=O)CCCCC)[C@H](C4CC4)C3)nc2C2CC2)c1 [Compound 830, (R)-6-cyclopropyl-2-(3-cyclopropyl-4-hexanoylpiperazin-1-yl)-5-(4-vinylpyridin-2-ylamino)nicotinonitrile] | < 0.5 | 
11 | C[C@@H]1CN(c2nc(C3CC3)c(-c3ccc(C#N)nc3)cc2C#N)CCN1C(=O)C1CC1 [Compound 583, (R)-6-(4-(cyclopropanecarbonyl)-3-methylpiperazin-1-yl)-2-cyclopropyl-3,3′-bipyridine-5,6′-dicarbonitrile] | 0.5 to 1 | 
12 | CC(C)c1nc(N2CCN(C(=O)Cc3cccs3)[C@H](C(C)C)C2)c(C#N)cc1-c1ccc(C(F)(F)F)cc1 [Compound 196, (R)-6-isopropyl-2-(3-isopropyl-4-(2-(thiophen-2-yl)acetyl)piperazin-1-yl)-5-(4-(trifluoromethyl)phenyl)-nicotinonitrile] |  | 1 to 5
13 | COc1ccccc1-c1cc(C#N)c(N2CCN(C(=O)Cc3cccs3)[C@H](C)C2)nc1C(C)C [Compound 177, (R)-6-isopropyl-5-(2-methoxyphenyl)-2-(3-methyl-4-(2-(thiophen-2-yl)acetyl)piperazin-1-yl)nicotinonitril-e] |  | 1 to 5
14 | C=Cc1cc(-c2cc(C#N)c(N3CCN(C(=O)CO)[C@H](C)C3)nc2C2CC2)ccn1 [Compound 632, (R)-2-cyclopropyl-6-(4-(2-hydroxyacetyl)-3-methylpiperazin-1-yl)-2′-vinyl-3,4′-bipyridine-5-carbonitrile] | < 0.5 | 
15 | CC(C)c1cc(-c2ccccc2)c(C#N)c(N2CCN(C(=O)c3ccoc3)[C@@H](C)C2)n1 [Compound 132, (S)-2-(4-(furan-3-carbonyl)-3-methylpiperazin-1-yl)-6-isopropyl-4-phenylnicotinonitrile] |  | 1 to 5

Second part, the molecule after the results:

Row | IC50 [1] [µM] | IC50 [2] [µM] | SMILES
16 | 0.5 to 1 |  | COCCC(=O)N1CCN(c2nc(C3CC3)c(-c3ccc(F)cc3)c(COC)c2C#N)C[C@H]1C [Compound 298, (R)-6-cyclopropyl-5-(4-fluorophenyl)-4-(methoxymethyl)-2-(4-(3-methoxypropanoyl)-3-methylpiperazin-1-yl)nicotinonitrile]
17 | < 0.5 |  | Cc1cc2c(-c3cc(C#N)c(N4CCN(C(=O)CC(F)(F)F)[C@H](C5CC5)C4)nc3C3CC3)cccc2cn1 [Compound 471, (R)-6-cyclopropyl-2-(3-cyclopropyl-4-(3,3,3-trifluoropropanoyl)piperazin-1-yl)-5-(3-methylisoquinolin-5-yl)nicotinonitrile]
18 | < 0.5 |  | C[C@@H]1CN(c2nc(C3CC3)c(Nc3ccnc(Cl)c3)cc2C#N)CCN1C(=O)CCO [Compound 661, (R)-5-((2-chloropyridin-4-yl)amino)-6-cyclopropyl-2-(4-(3-hydroxypropanoyl)-3-methylpiperazin-1-yl)nicotinonitrile]
19 | 0.5 to 1 |  | COCCC(=O)N1CCN(c2nc(C3CC3)c(-c3cccc(NC(C)=O)c3)cc2C#N)C[C@H]1C [Compound 284, (R)—N-(3-(5-cyano-2-cyclopropyl-6-(4-(3-methoxypropanoyl)-3-methylpiperazin-1-yl)pyridin-3-yl)phenyl)acetamide]
20 |  | ≤ 1 | COCCC(=O)N1CCN(c2nc(C(C)C)c(-c3ccc(OC)c(OC)c3)cc2C#N)C[C@H]1C [Compound 223, (R)-5-(3,4-dimethoxyphenyl)-6-isopropyl-2-(4-(3-methoxypropanoyl)-3-methylpiperazin-1-yl)nicotinonitr-ile]
21 | 0.5 to 1 |  | COCCC(=O)N1CCN(c2nc(C3CC3)c(-c3ccnn3C)cc2C#N)C[C@H]1C [Compound 371, (R)-6-cyclopropyl-2-[4-(3-methoxy-propionyl)-3-methyl-piperazin-1-yl]-5-(2-methyl-2H-pyrazol-3-yl)-nicotinonitrile]
22 | < 0.5 |  | C=Cc1cc(-c2c(C3CC3)nc(N3CCN(C(=O)/C=C/CCO)[C@H](C(C)C)C3)c(C#N)c2C)ccn1 [Compound 795, (R,E)-2-cyclopropyl-6-(4-(5-hydroxypent-2-enoyl)-3-isopropylpiperazin-1-yl)-4-methyl-2′-vinyl-3,4′-bipyridine-5-carbonitrile]
23 |  | 1 to 5 | Cc1cccc(-c2cc(C#N)c(N3CCN(C(=O)Cc4cccs4)[C@H](C)C3)nc2C(C)C)c1 [Compound 192, (R)-6-isopropyl-2-(3-methyl-4-(2-(thiophen-2-yl)acetyl)piperazin-1-yl)-5-m-tolylnicotinonitrile]
24 |  | 1 to 5 | COCCC(=O)N1CCN(c2nc(C(C)C)c(-c3cccc4ccccc34)cc2C#N)C[C@H]1C [Compound 217, (R)-6-isopropyl-2-(4-(3-methoxypropanoyl)-3-methylpiperazin-1-yl)-5-(naphthalen-1-yl)nicotinonitrile]
25 | 0.5 to 1 |  | COCCC(=O)N1CCN(c2nc(C3CC3)c(-c3cccc(NS(=O)(=O)CCl)c3)cc2C#N)C[C@H]1C [Compound 404, (R)-1-chloro-N-(3-(5-cyano-2-cyclopropyl-6-(4-(3-methoxypropanoyl)-3-methylpiperazin-1-yl)pyridin-3-yl)phenyl)methanesulfonamide]
26 | < 0.5 |  | COCCC(=O)N1CCN(c2nc(C3CC3)c(OCc3cccc(N)c3)cc2C#N)C[C@H]1C [Compound 341]
27 | 0.5 to 1 |  | COCCC(=O)N1CCN(c2nc(C3CC3)c(-c3ccc(-c4ccccc4)c(F)c3)c(C)c2C#N)C[C@H]1C [Compound 282, (R)-6-cyclopropyl-5-(2-fluorobiphenyl-4-yl)-2-(4-(3-methoxypropanoyl)-3-methylpiperazin-1-yl)-4-methylnicotinonitrile]
28 |  | 1 to 5 | C[C@@H]1CN(c2nc(C3CCCCC3)cc(-c3ccccc3)c2C#N)C[C@H](C)N1C(=O)c1ccoc1 [Compound 142, 6-cyclohexyl-2-((3S,5R)-4-(furan-3-carbonyl)-3,5-dimethylpiperazin-1-yl)-4-phenylnicotinonitrile]
29 | < 0.5 |  | C[C@@H]1CN(c2nc(C3CC3)c(-c3cccc4ncoc34)cc2C#N)CCN1C(=O)C1CC1 [Compound 482, (R)-5-(benzo[d]oxazol-7-yl)-2-(4-(cyclopropanecarbonyl)-3-methylpiperazin-1-yl)-6-cyclopropylnicotinonitrile]
30 |  | ≤ 1 | COCCC(=O)N1CCN(c2nc(C3CC3)c(-c3ccsc3)cc2C#N)C[C@H]1C [Compound 246, (R)-6-cyclopropyl-2-(4-(3-methoxypropanoyl)-3-methylpiperazin-1-yl)-5-(thiophen-3-yl)nicotinonitrile]
31 | 1 to 10 |  | N#Cc1cc(Cc2ccnc(Cl)c2)c(C2CC2)nc1N1CCN(C(=O)C2CC2)[C@H](C2CC2)C1 [Compound 685, (R)-5-((2-chloropyridin-4-yl)methyl)-2-(4-(cyclopropanecarbonyl)-3-cyclopropylpiperazin-1-yl)-6-cyclopropylnicotinonitrile]
32 |  | 5 to 15 | CC(C)c1cc(-c2ccccc2)c(C#N)c(N2CCN(C(=O)Cc3ccccc3)C(C)C2)n1 (centres unmarked) [Compound 121, 6-isopropyl-2-(3-methyl-4-(2-phenylacetyl)piperazin-1-yl)-4-phenylnicotinonitrile]
